Data as given in paper PMC6792352, “Limited Chemical Structural Diversity Found to Modulate Thyroid Hormone Receptor in the Tox21 Chemical Library” (Environmental Health Perspectives, 2019).
Structures can show the parent of a compound that is named as a salt.

Experiment: in vitro
Conditions: rat, gh3-tre-luc cells

| SMILES | CC50 at 24 h (AC50 (uM) modified / 1000) [µM] | other results |
| --- | --- | --- |
| CO[C@@H]1COCC[C@@H]1N[C@@H]1CC[C@@](C(=O)N2CCc3ncc(C(F)(F)F)cc3C2)(C(C)C)C1 [MK-812] | > 90 | – |
| Fc1ccccc1[C@@H](F)COC1CCC(Nc2ncnc3[nH]ncc23)CC1 (stereo partly drawn) [MK-968] | 82.7 | – |
| NC1(c2ccc(-c3nc4ccn5c(=O)[nH]nc5c4cc3-c3ccccc3)cc2)CCC1 [MK-2206] | 16.8 | – |
| O=C(C(Cl)Cl)N1CCOC12CCCCC2 [MON-4660] | 62.3 | – |
| CC(C)(C)NCC(O)c1cc(Cl)c(N)c(C(F)(F)F)c1 (stereo not drawn) [Mabuterol hydrochloride] | 22.3 | – |
| CO[C@@H]1[C@@H](OC)[C@H](C)[C@@](O)(CC(=O)O)O[C@H]1[C@H](C)[C@H]1O[C@@]2(CC[C@@](C)([C@H]3CC[C@@](C)([C@@H]4O[C@@H]([C@H]5O[C@](C)(O)[C@H](C)C[C@@H]5C)C[C@@H]4O[C@@H]4C[C@H](OC)[C@@H](OC)[C@H](C)O4)O3)O2)C[C@H](O)[C@H]1C [Maduramicin ammonium] | 0.49 | – |
| NCc1ccc(S(N)(=O)=O)cc1 [Mafenide hydrochloride] | > 20 | – |
| CCOC(=O)CC(SP(=O)(OC)OC)C(=O)OCC (stereo not drawn) [Malaoxon] | – | CC50 at 24 h (AC50 (uM) modified / 1000, Tox21_110001=Tox21_202017, viability, 1 nM T3 present, 24 h): > 90 µM |
| CCOC(=O)CC(SP(=S)(OC)OC)C(=O)OCC (stereo not drawn) [Malathion] | – | CC50 at 24 h (AC50 (uM) modified / 1000, Tox21_110001=Tox21_111175, viability, 1 nM T3 present, 24 h): > 50 µM; CC50 at 24 h (AC50 (uM) modified / 1000, Tox21_110001=Tox21_400048, viability, 1 nM T3 present, 24 h): > 90 µM |
| O=C(O)/C=C\C(=O)O [Maleic acid] | > 90 | – |
| O=C(O)/C=C\C(=O)Nc1ccc(S(=O)(=O)Nc2nccs2)cc1 [Maleylsulfathiazole] | > 50 | – |
| O=C(O)CC(O)C(=O)O (stereo not drawn) [Malic acid] | > 90 | – |
| CC(C)OC(=O)C(C(=O)OC(C)C)=C1SC=CS1 [Malotilate] | > 50 | – |
| Cc1occc(=O)c1OC(=O)C(C)C [Maltol isobutyrate] | > 90 | – |
| O=C[C@H](O)[C@@H](O)[C@H](O[C@H]1O[C@H](CO)[C@@H](O[C@H]2O[C@H](CO)[C@@H](O)[C@H](O)[C@H]2O)[C@H](O)[C@H]1O)[C@H](O)CO [Maltotriose] | > 50 | – |
| O=C1O[C@H]2[C@H](O)[C@@H]1OC(O)[C@H]2O (stereo partly drawn) [Mannuronic acid lactone] | > 50 | – |
| Cc1nnc(C(C)C)n1[C@@H]1C[C@H]2CC[C@@H](C1)N2CC[C@H](NC(=O)C1CCC(F)(F)CC1)c1ccccc1 [Maraviroc] | > 50 | – |
| CN1CCN(c2c(F)cc3c(=O)c(C(=O)O)cn4c3c2OCN4C)CC1 [Marbofloxacin] | > 50 | – |
| C=C1/C(=C\C=C2/CCC[C@]3(C)[C@@H]([C@H](C)OCCC(C)(C)O)CC[C@@H]23)C[C@@H](O)C[C@@H]1O [Maxacalcitol] | > 50 | – |
| CC(NN)c1ccccc1 (stereo not drawn) [Mebanazine] | > 50 | – |
| COC(=O)Nc1nc2ccc(C(=O)c3ccccc3)cc2[nH]1 [Mebendazole] | 0.337 | – |
| CCN(CCCCOC(=O)c1ccc(OC)c(OC)c1)C(C)Cc1ccc(OC)cc1 (stereo not drawn) [Mebeverine hydrochloride] | > 20 | – |
| Cc1cc(C)c(NC(=O)CN(CC(=O)O)CC(=O)O)c(C)c1Br [Mebrofenin] | > 50 | – |
| CNC1(C)C2CCC(C2)C1(C)C (stereo not drawn) [Mecamylamine] | > 50 | – |
| CCOC(=O)N(C)C(=O)CSP(=S)(OCC)OCC [Mecarbam] | – | CC50 at 24 h (AC50 (uM) modified / 1000, Tox21_110001=Tox21_302005, viability, 1 nM T3 present, 24 h): > 90 µM |

| SMILES | CC50 at 24 h (AC50 (uM) modified / 1000) [µM] | other results |
| --- | --- | --- |
| CCOC(=O)c1c(C)n(C)c2ccc(O)cc12 [Mecarbinate] | > 50 | – |
| Cc1ccc(Cl)c(Nc2ccccc2C(=O)O)c1Cl [Meclofenamate sodium] | > 50 | – |
| Cc1nc2ccccc2c(=O)n1-c1ccccc1Cl [Mecloqualone] | – | CC50 at 24 h (AC50 (uM) modified / 1000, Tox21_110001=Tox21_112870, viability, 1 nM T3 present, 24 h): 42.7 µM |
| CNC(=O)NC(O)C(Cl)(Cl)Cl (stereo not drawn) [Mecloralurea] | – | CC50 at 24 h (AC50 (uM) modified / 1000, Tox21_110001=Tox21_112123, viability, 1 nM T3 present, 24 h): > 50 µM |
| Cc1cccc(CN2CCN(C(c3ccccc3)c3ccc(Cl)cc3)CC2)c1 (stereo not drawn) [Meclozine dihydrochloride] | 15.6 | – |
| Cc1cc(Cl)ccc1OC(C)C(=O)O (stereo not drawn) [Mecoprop] | > 90 | – |
| CN1CCN=C(c2ccccc2)c2cc(Cl)ccc21 [Medazepam] | > 50 | – |
| Cc1cccc(C(C)c2cnc[nH]2)c1C (stereo not drawn) [Medetomidine hydrochloride] | > 50 | – |
| O=P(O)(O)CP(=O)(O)O [Medronic acid] | > 50 | – |
| CC(=O)O[C@]1(C(C)=O)CC[C@H]2[C@@H]3C[C@H](C)C4=CC(=O)CC[C@]4(C)[C@H]3CC[C@@]21C [Medroxyprogesterone acetate] | > 90 | – |
| CC(=O)[C@H]1CC[C@H]2[C@@H]3C[C@H](C)C4=CC(=O)CC[C@]4(C)[C@H]3[C@@H](O)C[C@]12C [Medrysone] | > 20 | – |
| COC(=O)[C@H]1[C@H]2C[C@@H]3c4[nH]c5cc(OC)ccc5c4CCN3C[C@H]2C[C@@H](OC(=O)COc2ccc(OC)cc2)[C@@H]1OC [Mefeserpine] | > 50 | – |
| CCN(CC)CCNC(=O)COc1ccc(OC)cc1 [Mefexamide hydrochloride] | > 50 | – |
| O[C@@H](c1cc(C(F)(F)F)nc2c(C(F)(F)F)cccc12)[C@H]1CCCCN1 [Mefloquine hydrochloride] | 5.17 | – |
| CN(CC1(C)CCCO1)S(=O)(=O)c1ccc(Cl)c(S(N)(=O)=O)c1 (stereo not drawn) [Mefruside] | > 50 | – |
| CNC[C@H](O)[C@@H](O)[C@H](O)[C@H](O)CO [Meglumine] | > 90 | – |
| Nc1nc(N)nc(N)n1 [Melamine] | > 90 | – |
| COc1ccc2[nH]cc(CCNC(C)=O)c2c1 [Melatonin] | > 90 | – |
| C=C1C[C@H]2[C@@H]3C=C(C)C4=CC(=O)CC[C@]4(C)[C@H]3CC[C@]2(C)[C@@]1(OC(C)=O)C(C)=O [Melengestrol acetate] | > 60 | – |
| CCCCC/C=C\C/C=C\CCCCCCCC(=O)NC(C)c1ccccc1 (stereo not drawn) [Melinamide] | > 50 | – |
| CN(C)CCC=C1c2ccccc2C(C)(C)c2ccccc21 [Melitracen hydrochloride] | 19.6 | – |
| Cc1cnc(NC(=O)C2=C(O)c3ccccc3S(=O)(=O)N2C)s1 [Meloxicam] | > 90 | – |
| CC(C)(C)NC[C@H](O)c1ccc(O)cc1Cl [Meluadrine] | > 50 | – |
| CC12CC3CC(C)(C1)CC(N)(C3)C2 [Memantine] | 38.1 | – |
| Cc1cc(O)c2ccccc2c1O [Menadiol] | 37.2 | – |

| SMILES | CC50 at 24 h (AC50 (uM) modified / 1000) [µM] | other results |
| --- | --- | --- |
| CC1(S(=O)(=O)O)CC(=O)c2ccccc2C1=O (stereo not drawn) [Menadione sodium bisulfite] | 12.2 | – |
| CC(C)=CCC/C(C)=C/CC/C(C)=C/CC/C(C)=C/CC1=C(C)C(=O)c2ccccc2C1=O [Menatetrenone] | > 50 | – |
| COc1ccc(C(=O)CCC(=O)O)c2ccccc12 [Menbutone] | > 50 | – |
| Cc1coc2c1CCC(C)C2 (stereo not drawn) [Menthofuran] | > 90 | – |
| CC(C)[C@@H]1CC[C@@H](C)C[C@H]1O [Menthol] | > 90 | – |
| CC1CCC(C(C)C)C(OC(=O)c2ccccc2N)C1 (stereo not drawn) [Menthyl anthranilate] | – | CC50 at 24 h (AC50 (uM) modified / 1000, Tox21_110001=Tox21_111602, viability, 1 nM T3 present, 24 h): 42.1 µM; CC50 at 24 h (AC50 (uM) modified / 1000, Tox21_110001=Tox21_200561, viability, 1 nM T3 present, 24 h): 27.5 µM |
| CC(C)[C@@H]1CC[C@@H](C)C[C@H]1OC(=O)c1ccccc1O [Menthyl salicylate] | > 50 | – |
| CC#Cc1cc(C)nc(Nc2ccccc2)n1 [Mepanipyrim] | > 90 | – |
| C[N+]1(C)CCCC(OC(=O)C(O)(c2ccccc2)c2ccccc2)C1 (stereo not drawn) [Mepenzolate bromide] | > 20 | – |
| Cc1ccccc1OCC(O)CO (stereo not drawn) [Mephenesin] | > 50 | – |
| COc1ccccc1OCC1CNC(=O)O1 (stereo not drawn) [Mephenoxalone] | > 50 | – |
| CNC(C)(C)Cc1ccccc1 [Mephentermine hemisulfate] | – | CC50 at 24 h (AC50 (uM) modified / 1000, Tox21_110001=Tox21_110501, viability, 1 nM T3 present, 24 h): > 20 µM |
| CCC1(c2ccccc2)C(=O)NC(=O)N(C)C1=O (stereo not drawn) [Mephobarbital] | > 50 | – |
| C[N+]1(C)CCCCC1 [Mepiquat chloride] | > 90 | – |
| [O-][n+]1cccc(CO)c1 [Mepiroxol] | > 50 | – |
| Cc1cccc(C)c1NC(=O)C1CCCCN1C (stereo not drawn) [Mepivicaine hydrochloride] | > 50 | – |
| Cc1ccc2c(n1)Oc1ccc(C(C)C(=O)OCC(=O)N(C)C)cc1C2 (stereo not drawn) [Mepranoprofen arbamel] | > 50 | – |
| C[C@H]1C[C@H]2[C@@H]3CCC4=CC(=O)C=C[C@]4(C)[C@H]3C(=O)C[C@]2(C)[C@@]1(O)C(=O)CO [Meprednisone] | > 50 | – |
| CCCC(C)(COC(N)=O)COC(N)=O [Meprobamate] | – | CC50 at 24 h (AC50 (uM) modified / 1000, Tox21_110001=Tox21_111063, viability, 1 nM T3 present, 24 h): > 50 µM; CC50 at 24 h (AC50 (uM) modified / 1000, Tox21_110001=Tox21_200332, viability, 1 nM T3 present, 24 h): > 90 µM |
| Cc1ccccc1C(=O)Nc1cccc(OC(C)C)c1 [Mepronil] | > 90 | – |
| CCCNC(C)(C)COC(=O)c1ccccc1 [Meprylcaine hydrochloride] | > 50 | – |
| CCC1(c2cccc(O)c2)CCCCN(C)C1 (stereo not drawn) [Meptazinol hydrochloride] | – | CC50 at 24 h (AC50 (uM) modified / 1000, Tox21_110001=Tox21_110665, viability, 1 nM T3 present, 24 h): > 20 µM |
| c1ccc2c(c1)Sc1ccccc1N2CC1CN2CCC1CC2 (stereo not drawn) [Mequitazine] | 7.76 | – |
| C[C@@H](O)[C@H]1C(=O)N2C(C(=O)O)=C(S[C@@H]3CN[C@H](C(=O)N(C)C)C3)[C@H](C)[C@H]12 [Meropenem] | > 50 | – |
| COc1cc(CCN)cc(OC)c1OC [Mescaline hydrochloride] | > 100 | – |
